Data from PMC7423395, “Male-predominant galanin mediates androgen-dependent aggressive chases in medaka” (eLife, 2020).

Tests used:
Format in all cases: in vivo, medaka (Oryzias latipes)
[1] = test system: gal-expressing neurons in brain nuclei; assay: Number of gal-expressing neurons by in situ hybridization in gonadectomized, sex steroid-treated fish; conditions: 100 ng/ml by immersion for 6 days, n = 5 per group; for ovariectomy-induced increase in the number of gal-expressing neurons in pPMp, effect of steroid treatment: ovariectomized adult females
Text: (§1) For both male and female fish, the gonad was removed under tricaine methane sulfonate anesthesia (0.02%) (Sigma-Aldrich, St. Louis, MO) through a small incision made in the ventrolateral abdominal wall. Immediately after removal of the gonad, the incision was sutured with nylon thread. Sham-operated fish received the same surgical treatment as gonadectomized fish, except for removal of the gonad. After a recovery period of 3 days in saline (0.9% (w/v) NaCl), gonadectomized fish were immersed in water containing 100 ng/ml of KT (Cosmo Bio, Tokyo, Japan) or E2 (Fujifilm Wako Pure Chemical Corporation), or vehicle (ethanol) alone for 6 days and then sampled. Sham-operated fish were treated with vehicle alone and used as controls. In another experiment, females of gal knockout lines with intact ovaries were treated with 100 ng/ml of KT by immersion in water for 10 days and then sampled. The sex steroid concentration used was based on previously reported serum steroid levels in medaka ([Foran et al., 2002]; [Foran et al., 2004]; [Tilton et al., 2003]).
The procedure for single-label in situ hybridization has been described previously ([Hiraki et al., 2012]). In brief, whole brains were fixed in 4% paraformaldehyde (PFA) and embedded in paraffin. Serial coronal sections of 10 μm thickness were cut and hybridized with the DIG-labeled galr1 or galr2 probe or the same DIG-labeled gal probe used for Northern blot analysis. Hybridization signals were visualized by using alkaline phosphatase-conjugated anti-DIG antibody and 5-bromo-4-chloro-3-indolyl phosphate/nitro blue tetrazolium (BCIP/NBT) substrate (Roche Diagnostics). Color development was allowed to proceed for more than 5 hr, or was stopped after 15 min (for quantification of gal expression in males that were castrated and treated with sex steroids) or 1 hr (for quantification of gal expression in females that were ovariectomized and treated with sex steroids) to avoid saturation. All sections in each comparison were processed simultaneously under the same conditions. For galr1, for which hybridization signals were detected throughout the brain and thus the specificity of the staining was somewhat uncertain, in situ hybridization was also performed using a sense probe under conditions identical to those used for the antisense probe. No signal was obtained by the sense probe, confirming that the signals obtained by the antisense probe represented specific staining.
To obtain quantitative data, the number of gal-expressing neurons in each brain nucleus was counted manually. […] In this case, the total number of the neurons in the nuclei was counted. Only intensively labeled neurons with a clearly defined cell body were counted to reduce, if not eliminate, the likelihood of double counting of the neurons split between sections. […]

[2] = test system: gal expression in the whole brain; assay: Whole-brain gal expression by real-time PCR in gonadectomized, sex steroid-treated fish; conditions: castrated adult males, 100 ng/ml by immersion in water for 6 days, normalized to actb, versus castrated vehicle
Text: as §1, with “In another experiment, females of gal knockout lines with intact ovaries were treated with 100 ng/ml of KT by immersion in water for 10 days and then sampled. The sex steroid concentration used was based on previously reported serum steroid levels in medaka ([Foran et al., 2002]; [Foran et al., 2004]; [Tilton et al., 2003]).” left out
In cases where there were fewer than seven data points per experimental group, individual data points were plotted with the mean ± standard error of the mean (SEM); in cases where there were seven or more data points per experimental group, data were plotted as box and whisker plots by the Tukey method for clarity. In real-time PCR analysis, the expression level of gal (normalized to that of actb) in female whole brain was arbitrarily set to 1, and the relative difference was calculated in each data set to facilitate comparisons among data sets.

adult female medaka = assay: Aggressive behavior test of KT-treated females; conditions: 100 ng/ml KT by immersion for 10 days, main effect of androgen treatment
Text: For both male and female fish, the gonad was removed under tricaine methane sulfonate anesthesia (0.02%) (Sigma-Aldrich, St. Louis, MO) through a small incision made in the ventrolateral abdominal wall. Immediately after removal of the gonad, the incision was sutured with nylon thread. Sham-operated fish received the same surgical treatment as gonadectomized fish, except for removal of the gonad. After a recovery period of 3 days in saline (0.9% (w/v) NaCl), gonadectomized fish were immersed in water containing 100 ng/ml of KT (Cosmo Bio, Tokyo, Japan) or E2 (Fujifilm Wako Pure Chemical Corporation), or vehicle (ethanol) alone for 6 days and then sampled. […]
All behavioral procedures were conducted in 2-l rectangular tanks contained within a large recirculating water system with a constant influx of dechlorinated tap water. […] The partitions were then removed, and the fish were allowed to interact for 20 min while their behavior was recorded as described above. […]
In each test, wild-type, heterozygous, and homozygous siblings reared under the same conditions were used as the comparison group. The total number of each aggressive act (chase, fin display, circle, strike, and bite) performed by the four fish in the tank was counted manually from the video recordings. In addition, the total number of chases by the four fish in the tank was calculated for each 5 min interval during the test period. […]

C[C@]12CC[C@@H]3c4ccc(O)cc4CC[C@H]3[C@@H]1CC[C@@H]2O [E2, estradiol-17β]
number of gal-expressing neurons in aPMp/pPPa ([1]; castrated adult males): increased | ovariectomy-induced increase in the number of gal-expressing neurons in pPMp, effect of steroid treatment [1]: significantly attenuated

C[C@]12CC(=O)[C@H]3[C@@H](CCC4=CC(=O)CC[C@@]43C)[C@@H]1CC[C@@H]2O [KT, 11-ketotestosterone]
level of brain gal expression reduced by castration, effect of steroid treatment [2]: restored by treatment with KT | number of gal-expressing neurons in pPMp reduced by castration, effect of steroid treatment ([1]; castrated adult males): restored by KT treatment | ovariectomy-induced increase in the number of gal-expressing neurons in pPMp, effect of steroid treatment [1]: further enhanced | number of bites (adult female medaka; adult females of gal knockout lines Δ2 and Δ10, 20 min test): significantly increased | number of chases (adult female medaka; adult females of gal knockout lines Δ2 and Δ10 with intact ovaries, four fish per tank, 20 min, n = 6 per group): significantly increased
